Data reported in patent publication US10870660B2, “Nitrogen-containing condensed ring compounds having dopamine D3 antagonistic effect” (Shionogi & Co., Ltd., priority 2016, dated 2020).
pKi: −log10 of the molar value.

How the values were obtained:
[1] = biological target: human recombinant dopamine D2 receptor (Homo sapiens (Human), UniProt P14416); test: Test of binding inhibition for the human dopamine D2 receptor ([3H]-Metylspiperone SPA binding); details: [3H]-Metylspiperone 1.2 nM, Jump-In HEK cell membranes, read-out: hD2_Ki
Experimental: Cell membranes: Jump-In HEK cell membranes expressing human recombinant dopamine D2 receptor (2 μg/well)
Buffer solution: 50 mM Tris-HCl (35409-45, Nacalai Tesque) (pH 7.4) containing 120 mM NaCl (31320-05, Nacalai Tesque), 1 mM MgCl2.6H2O (20909-55, Nacalai Tesque), 5 mM KCl (28514-75, Nacalai Tesque) and 2 mM CaCl2 (067-31, Nacalai Chemical, Ltd)
Radioligand: (final concentration) 1.2 nM [^3H]-Metylspiperone ([^3H—N-methyl-]-Metylspiperone, NET-856, 83.8 Ci/mmol, PerkinElmer)
(§1) Non-specific ligand: (final concentration) 10 μM Butaclamol [(+)-Butaclamol Hydrochioride, D033, Sigma]
(§2) SPA beads: SPA beads [WGA PVT SPA Scintillatiion Beads, RPNQ0001 (500 mg), RPNQ0060 (2 g), PerkinElmer] (0.2 mg/well)
(§3) Incubation time and temperature: 120 min at 25° C.
(§4) Butaclamol or the compounds of the present invention were weighed and DMSO was added to make a 10 mM solution. This solution was diluted to each concentration.
[^3H]-Metylspiperone was weighed and the buffer solution was added to make a 3.6 nM solution.
(§5) SPA beads were weighed and stirred in water to make a 50 mg/mL solution. Using this solution, a mixed solution with the cell membranes was prepared.
225 nL of the solutions of the non-specific ligand or the compounds of the present invention at each concentration (in case of vehicle, final concentration 0.3% DMSO) were added in each well of a 384-well white/clear bottom microplate (3706, Corning). Jump-In HEK Cell membranes (final reaction amount: 2 μg protein/well), SPA beads (final reaction amount: 0.2 mg/well) and the buffer were mixed and the mixed solution was left still for more than or equal to 1 h at 4° C. Then, 50 μL of the mixture was added to each well of the plate. In addition, 25 μL of 3.6 nM [^3H]-Metylspiperone (final concentration: 1.2 nM) was added to each well. The plate was sealed by putting TopSeal-A 96/384 well (6050185, PerkinElmer) on the top of the plate, mixed using stirring deaerator (Welltornado, FK-62, Sakaki) and incubated for 120 min at 25° C. After incubation, the radioactivity of [^3H]-Metylspiperone which was binded to D2 receptor was determined by liquid scintillation counter (1450 Microbeta, PerkinElmer) in each well. Non-specific binding was calculated based on the radioactivity of [^3H]-Metylspiperone in the presence of 10 μM non-labeled Butaclamol. The total binding was calculated using the radioactivity of [^3H]-Metylspiperone in the absence of the compounds of the present invention (Vehicle). The Ki values were calculated from dose-response curves.
(§6) Binding activities of the compounds of the present invention were calculated from the following Binding Inhibition Rate (%): Inhibition Rate (%)=[1−(c−a)(b−a)]×100(%) • a: Average cpm of non-specific binding • b: Average cpm of total binding • c: Cpm in the presence of each test compound

[2] = biological target: human recombinant dopamine D3 receptor (Homo sapiens (Human), UniProt P35462); test: Test of binding inhibition for the human dopamine D3 receptor ([3H]-Metylspiperone SPA binding); details: [3H]-Metylspiperone 2 nM, Jump-In HEK cell membranes, read-out: hD3_Ki
Experimental: Cell membranes: Jump-In HEK cell membranes expressing human recombinant dopamine D3 receptor (4 μg/well)
as §1, §2, §3, §4
[^3H]-Metylspiperone was weighed and the buffer solution was added to make a 6 nM solution.
as §5
Jump-In HEK Cell membranes (final reaction amount: 4 μg/well), SPA beads (final reaction amount: 0.2 mg/well) and Tris-HCl buffer were mixed and the mixed solution was left still for more than 60 min at 4° C. Then, 50 μL of the mixture was added to each well of the plate. In addition, 25 μL of 6 nM [^3H]-Metylspiperone (final concentration: 2 nM) was added to each well. […] Non-specific binding was calculated based on the radioactivity of [^3H]-Metylspiperone in the presence of 10 μM non-labeled Butaclamol. The total binding was calculated based on the radioactivity of [^3H]-Metylspiperone in the absence of the compounds of the present invention (Vehicle). The Ki values were calculated from dose-response curves.
as §6

Sequence of human recombinant dopamine D2 receptor (P14416 whole entry): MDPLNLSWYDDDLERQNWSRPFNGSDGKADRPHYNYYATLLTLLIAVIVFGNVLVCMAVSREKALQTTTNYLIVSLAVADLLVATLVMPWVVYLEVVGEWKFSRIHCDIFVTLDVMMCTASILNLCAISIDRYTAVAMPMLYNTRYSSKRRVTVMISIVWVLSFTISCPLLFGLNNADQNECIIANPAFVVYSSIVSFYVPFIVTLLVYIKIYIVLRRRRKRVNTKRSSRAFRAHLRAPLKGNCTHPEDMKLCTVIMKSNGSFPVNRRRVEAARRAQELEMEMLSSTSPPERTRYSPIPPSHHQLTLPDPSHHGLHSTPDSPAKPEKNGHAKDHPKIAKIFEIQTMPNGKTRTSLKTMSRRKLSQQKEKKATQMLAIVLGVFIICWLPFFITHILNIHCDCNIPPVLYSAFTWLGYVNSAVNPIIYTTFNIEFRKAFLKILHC
Sequence of human recombinant dopamine D3 receptor (P35462 whole entry): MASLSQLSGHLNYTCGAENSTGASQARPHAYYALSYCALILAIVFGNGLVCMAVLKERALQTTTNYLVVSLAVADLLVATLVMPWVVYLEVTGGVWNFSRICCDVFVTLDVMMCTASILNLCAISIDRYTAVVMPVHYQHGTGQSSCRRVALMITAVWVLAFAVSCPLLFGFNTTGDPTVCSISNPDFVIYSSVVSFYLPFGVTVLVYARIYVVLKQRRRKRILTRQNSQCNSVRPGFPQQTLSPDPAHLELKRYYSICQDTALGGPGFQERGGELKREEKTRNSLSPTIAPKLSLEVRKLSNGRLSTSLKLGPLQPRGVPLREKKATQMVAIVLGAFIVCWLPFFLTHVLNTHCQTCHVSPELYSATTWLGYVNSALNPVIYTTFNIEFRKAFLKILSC

Compound `Cn1cc2c(C(=O)N[C@H]3CC[C@H](CCN4CCc5nc(OCC(F)(F)F)sc5CC4)CC3)cccc2n1` [II-046] has a pKi [1] of 5.92 and a pKi [2] of 9.70.
Compound `Cn1c(C(=O)N[C@H]2CC[C@H](CCN3CCc4nc(OCC(F)(F)F)sc4CC3)CC2)cccc1=O` [III-128] has a pKi [1] of 6.43 and a pKi [2] of 9.92.
`CC1c2nc(OCC(F)F)sc2CCN1CC[C@H]1CC[C@H](NC(=O)c2cccc3ncccc23)CC1` (stereo partly shown) [Compound I-101] gave a pKi [1] of under 5.77 and a pKi [2] of 8.09.
In the case of `O=C(CCC(F)(F)F)N[C@H]1CC[C@H](CCN2CCc3sc(N4CC(F)(F)C4)nc3C2)CC1` [III-580], the pKi [1] was 6.27 and the pKi [2] was 9.60.
In the case of `CC(F)(F)COc1nc2c(s1)CCN(CC[C@H]1CC[C@H](NS(=O)(=O)c3cccc(F)c3)CC1)C2` [III-576], the pKi [1] was 7.10 and the pKi [2] was 9.36.
Compound `Cc1ncc(CC(=O)N[C@H]2CC[C@H](CCN3CCc4sc(CCC(F)(F)F)nc4C3)CC2)o1` [III-696] has a pKi [1] of 6.10 and a pKi [2] of 9.70.
Compound `Cc1ncccc1C(=O)N[C@H]1CC[C@H](CCN2CCc3nc(OCC(F)F)sc3CC2)CC1` [III-271] has a pKi [1] of 5.96 and a pKi [2] of 8.92.
In the case of `Cn1cc2c(C(=O)N[C@H]3CC[C@H](CCN4CCc5ccc(OCC(F)(F)F)nc5CC4)OC3)cccc2n1` [II-087], the pKi [1] was 6.59 and the pKi [2] was 10.23.
`O=C(N[C@H]1CC[C@H](CCN2CCc3sc(C4=CCOCC4)nc3C2)CC1)c1cccc2ncccc12` [Compound I-001] was tested, and the pKi [1] was under 5.77 and the pKi [2] was 7.96.
In the case of `CN1Cc2c(C(=O)N[C@H]3CC[C@H](CCN4CCc5sc(CCC(F)(F)F)nc5C4)CC3)cccc2C1=O` [III-697], the pKi [1] was 6.66 and the pKi [2] was 9.64.
Work on `Cn1cc2c(C(=O)N[C@H]3CC[C@H](CCN4CCc5nc(OCC(C)(C)F)sc5CC4)CC3)cccc2n1` [III-076] yielded a pKi [1] of under 5.77 and a pKi [2] of 9.14.
Compound `Cn1cc(/C=C/C(=O)N[C@H]2CC[C@H](CCN3CCc4nc(OCC(F)(F)F)sc4CC3)OC2)cn1` [III-168] has a pKi [1] of 6.85 and a pKi [2] of 9.89.
`Cc1nnc(CC(=O)N[C@H]2CC[C@H](CCN3CCc4sc(CCC(F)(F)F)nc4C3)CC2)o1` [III-674] showed a pKi [1] of 5.96 and a pKi [2] of 8.96.
Work on `CN1Cc2c(C(=O)N[C@H]3CC[C@H](CCN4CCc5sc(OCC(F)(F)F)nc5C4)CC3)cccc2C1=O` [III-610] yielded a pKi [1] of 6.48 and a pKi [2] of 10.11.
For `Cc1ncccc1C(=O)N[C@H]1CC[C@](F)(CCN2CCc3nc(OCC(F)(F)F)sc3CC2)CC1` [III-252], the pKi [1] was 6.23 and the pKi [2] was 9.37.
In the case of `Cc1nc(CC(=O)N[C@H]2CC[C@H](CCN3CCc4ccc(OCC(F)(F)F)nc4CC3)OC2)no1` [III-001], the pKi [1] was 5.96 and the pKi [2] was 9.30.
`Cc1cc(CC(=O)N[C@H]2CC[C@](F)(CCN3CCc4nc(OCC(F)(F)F)sc4CC3)CC2)no1` [III-255] was tested, and the pKi [1] was under 5.74 and the pKi [2] was 9.17.
In the case of `Cc1cc(OCC(=O)N[C@H]2CC[C@H](CCN3CCc4ccc(OCC(F)(F)F)nc4CC3)CC2)no1` [II-078], the pKi [1] was under 5.74 and the pKi [2] was 10.12.
With `Cn1cc(CC(=O)N[C@H]2CC[C@H](CCN3CCc4sc(OCC(C)(F)F)nc4C3)CC2)c(F)n1` [III-547] the pKi [1] was 6.10 and the pKi [2] was 9.19.
With `O=C(CCC(F)(F)F)N[C@H]1CC[C@H](CCN2CCc3nc(CCC(F)(F)F)sc3CC2)CC1` [II-018] the pKi [1] was under 5.74 and the pKi [2] was 8.57.
`Cn1cc2c(C(=O)N[C@H]3CC[C@H](CCN4CCc5ccc(C6CC6)nc5CC4)CC3)cccc2n1` [III-074] was tested, and the pKi [1] was under 5.74 and the pKi [2] was 9.18.
For `CCCOc1nc2c(s1)CCN(CC[C@H]1CC[C@H](NC(=O)c3cccc4nn(C)cc34)CC1)C2` [III-544], the pKi [1] was under 5.77 and the pKi [2] was 9.26.
`Cn1c(-c2ccccc2)nc2c1CCN(CC[C@H]1CC[C@H](NC(=O)c3cccc4ncccc34)CC1)C2` [Compound I-070] was tested, and the pKi [1] was 6.30 and the pKi [2] was 8.85.
In the case of `Cc1ncc(CC(=O)N[C@H]2CC[C@H](CCN3CCc4sc(OCC(C)(F)F)nc4C3)CC2)o1` [III-451], the pKi [1] was 6.19 and the pKi [2] was 9.32.
For `Cn1cc(/C=C/C(=O)N[C@H]2CC[C@H](CCN3CCc4nc(OCC(F)(F)F)sc4CC3)CC2)cn1` [III-138], the pKi [1] was 7.36 and the pKi [2] was 10.24.
Work on `Cc1cnc(CC(=O)N[C@H]2CC[C@H](CCN3CCc4sc(CCC(F)(F)F)nc4C3)CC2)o1` [III-698] yielded a pKi [1] of 6.11 and a pKi [2] of 9.28.
`Cc1cc(CC(=O)N[C@H]2CC[C@H](CCN3CCc4nc(OCC(F)(F)F)sc4CC3)OC2)on1` [III-171] showed a pKi [1] of under 5.77 and a pKi [2] of 9.33.
`Cc1nc(CC(=O)N[C@H]2CC[C@H](CCN3CCc4sc(N5CC(F)(F)C5)nc4C3)CC2)no1` [III-512] was tested, and the pKi [1] was 5.96 and the pKi [2] was 9.05.
`Cn1cc2c(C(=O)N[C@H]3CC[C@H](CCN4CCc5nc(OC6CC(F)(F)C6)sc5CC4)CC3)cccc2n1` [III-244] gave a pKi [1] of under 5.72 and a pKi [2] of 9.62.
Compound `Cc1cc2c(C(=O)N[C@H]3CC[C@H](CCN4CCc5ccc(OCC(F)(F)F)nc5CC4)OC3)cccn2n1` [III-228] has a pKi [1] of 6.48 and a pKi [2] of 9.80.
With `Cc1ncc(CC(=O)N[C@H]2CC[C@H](CCN3CCc4nc(OCC5CC5)sc4CC3)CC2)s1` [II-090] the pKi [1] was under 5.72 and the pKi [2] was 9.19.
`Cn1cc(OCC(=O)N[C@H]2CC[C@](F)(CCN3CCc4nc(OCC(F)(F)F)sc4CC3)CC2)cn1` [III-268] showed a pKi [1] of 6.47 and a pKi [2] of 9.41.
In the case of `O=C(N[C@H]1CC[C@H](CCN2CCc3cnc(CC4CC4)nc3C2)CC1)c1cccc2ncccc12` [Compound I-133], the pKi [1] was under 5.77 and the pKi [2] was 8.10.
`Cn1cc2c(C(=O)N[C@H]3CC[C@H](C(O)CN4CCc5ccc(OCC(F)(F)F)nc5CC4)CC3)cccc2n1` (stereo partly shown) [III-248] showed a pKi [1] of under 5.72 and a pKi [2] of 8.80.
Work on `CC(F)(F)COc1nc2c(s1)CCN(CC[C@H]1CC[C@H](NC(=O)c3cccc4ncccc34)CC1)C2` [Compound I-071] yielded a pKi [1] of 6.82 and a pKi [2] of 9.89.
For `CC(Oc1nc2c(s1)CCN(CC[C@H]1CC[C@H](NC(=O)c3cccc4nn(C)cc34)CC1)CC2)C(F)(F)F` (stereo partly shown) [III-063], the pKi [1] was under 5.72 and the pKi [2] was 9.89.
With `Cc1ncc(OCC(=O)N[C@H]2CC[C@H](CCN3CCc4nc(OCC(F)(F)F)sc4CC3)OC2)cn1` [III-165] the pKi [1] was 6.17 and the pKi [2] was 9.09.
Compound `Cn1cc2c(C(=O)N[C@H]3CC[C@H](CCN4CCc5sc(COC(F)(F)F)nc5C4)CC3)cccc2n1` [III-623] has a pKi [1] of under 5.74 and a pKi [2] of 9.08.
With `Cc1cc2c(C(=O)N[C@H]3CC[C@H](CCN4CCc5nc(OCC(F)(F)F)sc5CC4)OC3)cccn2n1` [III-169] the pKi [1] was 6.42 and the pKi [2] was 9.40.
Compound `Cn1cc2c(C(=O)N[C@H]3CC[C@H](CCN4CCc5sc(OCC(C)(F)F)nc5C4)CC3)cccc2n1` [III-441] has a pKi [1] of 6.77 and a pKi [2] of 9.62.
`Cc1cnc(CC(=O)N[C@H]2CC[C@H](CCN3CCc4ccc(OCC(F)(F)F)nc4CC3)OC2)o1` [III-234] was tested, and the pKi [1] was 6.34 and the pKi [2] was 9.11.
